Test results published in a melting point compilation (Tetko et al.; mined from patent text by program, amines drawn as free bases though some values may be those of a salt).

Row | SMILES | melting point [°C]
1 | COC(=O)c1ccccc1-c1ccc(C)cc1 | 119 to 121
2 | O=S(=O)(NC(CCCN1CCN(c2ncc(F)cn2)CC1)c1ccc(F)cc1)c1ccc(F)cc1 (stereo not given) | 128 to 129
3 | COc1ccc(C(=O)c2c(N)sc3c2CCN(Cc2ccccc2)C3)cc1OC | 149 to 150
4 | CCc1nc2cc(OC)c(OC)cc2c(-c2ccc(OC)c(OC)c2)c1C(=O)O | 264 to 267
5 | CCCn1c(Cl)cc2cnc(C)n2c1=O | 125 to 126
6 | Cc1cccc(Nc2cc(Nc3ccc(OCC(=O)N(C)C)c(Cl)c3)ncn2)c1 | 190 to 193
7 | N#Cc1nn(-c2c(Cl)cc(C(F)(F)F)cc2Cl)c(N)c1-c1ccsc1 | 210 to 212
8 | c1csc(-c2nc(CCOc3ccc(CCCn4ccnc4)cc3)co2)c1 | 77 to 78
9 | [N-]=[N+]=NC(c1ccccc1)C(O)c1ccccc1 (stereo not given) | 59 to 60
10 | CCOCc1nc2c(N)nc3ccc(CCc4ccccc4)cc3c2n1CC(C)(C)O | 175 to 176
11 | Cc1ccc(S(=O)(=O)n2cc(C=O)c3ccc(C(=O)Nc4c(Cl)cncc4Cl)cc32)cc1 | 245
12 | COCCn1cc(C#N)c(N)n1 | 105 to 107
13 | Cc1cc(-c2cccc(NC(=O)C(C)(C)C)c2)cc2c1[C@H]1CCC(=O)N(C)[C@@H]1CC2 | 95 to 98
14 | O=C(O)C1CCc2c(c3cc(F)ccc3n2C(=O)c2ccccc2)C1 (stereo not given) | 218 to 220
15 | COCCc1nc2c(N)nc3ccccc3c2n1CCCCNC(=O)c1cnc2ccccc2n1 | 85 to 87
16 | Cc1nc(-c2ccccc2)nc(-c2cccc([N+](=O)[O-])c2)c1CN | 145 to 147
17 | CCCCCCCCC(O)C(=O)NCCSSCCNC(=O)C(O)CCCCCCCC (stereo not given) | 180 to 183
18 | COc1c(C)c2c(c(C(=O)O)c1C/C=C(\C)CCC(=O)O)C(=O)OC2 | 172 to 174
19 | CC(Oc1ccc(-c2ccc(S(N)(=O)=O)cc2)cc1)C(O)CCc1cccnc1 (stereo not given) | 222 to 223
20 | CC(NS(=O)(=O)c1cc(C(=O)Cl)ccc1Cl)c1ccccc1 (stereo not given) | 112
21 | COc1ccc(S(=O)(=O)N2c3ccccc3-c3ccccc3C2C(C)(C)C)cc1 (stereo not given) | 156 to 158
22 | O=C(O)c1cccc(-c2cccc(OCCc3ccc(Cl)cc3Cl)n2)c1 | 199 to 200
23 | CC(=O)N(Cc1ccc(Cl)cc1Cl)c1cncnc1 | 134 to 136
24 | CN(C)c1ccc(NC(=O)C2C(=O)C3CC[C@](C)(C2=O)C3(C)C)cc1 (stereo not given in full) | 93 to 95
25 | C=C(Cl)C(=O)Nc1ccc(Cl)cc1 | 105 to 106

Row | SMILES | melting point [°C]
26 | CCOC(=O)C1CNc2ccc([N+](=O)[O-])cc2O1 (stereo not given) | 130 to 132
27 | O=C1CCc2cc3[nH]c(-c4ccncc4)nc3cc2N1 | 285 to 288
28 | Cc1c(NC(=O)c2ccc(OC[C@@H]3CCCO3)cc2)ccc2cc(CNCC(C)C)cnc12 | 142 to 143
29 | COc1ccc(C(=O)Nc2ccccc2)cc1NCc1cccc(F)c1 | 137 to 140
30 | CCS(=O)(=O)Cc1ccc(Cl)c2nc3n(c12)CCCN3c1ccc(Cl)cc1Cl | 278 to 280
31 | CC(C)c1nc2cc(NC(=O)OC(C)(C)C)ccn2n1 | 215 to 218
32 | CCCCOc1nc(N)nc2c1ncn2C1C=CC(CO)C1 (stereo not given) | 122 to 123
33 | COC(=O)c1cccc2nc(SCCN3CCN(CC(=O)Nc4c(C(C)C)cccc4C(C)C)CC3)oc12 | 159 to 161
34 | CCOCc1nc2c(N)nc3cc(OCc4nc(-c5cccs5)no4)ccc3c2n1CC(C)(C)O | 173 to 175
35 | C/C(=C\c1cccc2ccccc12)C(=O)O | 155
36 | OCc1ccc2c(c1)COC2c1ccc(F)cc1 (stereo not given) | 101 to 104
37 | CC1CC(=O)c2c(C(=O)Nc3ccc4c(c3)OC(C)(C)O4)c[nH]c2C1 (stereo not given) | 297 to 299
38 | Cc1nc(N2CCc3ccccc3CC2)c(C#N)c(=O)n1NC(C)C | 142 to 146
39 | Cc1ccc(S(=O)(=O)Nc2cc3c(c(C(=O)O)c2)NCCO3)cc1 | 213 to 215
40 | O=C(NCc1ccccn1)Nc1cc(N2CC(Cc3ccccc3)OC2=O)ccn1 (stereo not given) | 191 to 193
41 | CC(C)C(c1ccc(NC(=O)CC(=O)c2ccccc2)c([N+](=O)[O-])c1)n1ccnc1 (stereo not given) | 106
42 | CC1(C)CC(NC(=O)C(O)c2ccccc2)c2cc(C#N)ccc2O1 (stereo not given) | 120 to 121
43 | Cc1nc[nH]c1CSCCNC(=N)NCCSCc1nccs1 | 149 to 151
44 | COCCc1cccc2oc(C(=O)Nc3ccc(-c4ccc(S(=O)(=O)NC(C(=O)O)C(C)C)cc4)cc3)c(C)c12 (stereo not given) | 100 to 110
45 | NNC(=O)c1cc2c(Oc3ccc(Cl)cc3)cncc2s1 | 197 to 199
46 | COc1cc2c(cc1OC)C(c1ccc(SC(F)(F)F)cc1)CNCC2 (stereo not given) | 95
47 | Cc1c(Cl)nc2sc(S(=O)(=O)Cc3ccccc3)nn2c1=O | 211 to 213
48 | CC1(C)OCC(NC(=O)c2ccc([N+](=O)[O-])cc2)CO1 | 211
49 | COC(=O)c1cc(S(N)(=O)=O)c(Br)cc1C | 198 to 200
50 | O=C1NCCCCC1Br (stereo not given) | 109 to 111

Row | SMILES | melting point [°C]
51 | O=C(O)c1ccc(OCCNC(=O)C2Cc3ccccc3N2S(=O)(=O)c2ccc(-c3cccc(C(F)(F)F)c3)cc2)cc1F (stereo not given) | 97 to 105
52 | CCCOc1ccccc1-c1nc(OCC)cc(=O)[nH]1 | 95.5 to 97
53 | O=C(O)C(Cl)=C(Cl)C(=O)N(Cc1ccco1)Cc1ccco1 | 149
54 | CCCc1cn2c(=O)c(C(=O)OCC)cnc2c2cc(OC)ccc12 | 187 to 188
55 | Cc1cc(OCc2coc(/C=C/c3ccc(OC(F)(F)F)cc3)n2)ccc1CCCCc1cn(C(c2ccccc2)(c2ccccc2)c2ccccc2)nn1 | 135 to 136
56 | CC(C)NNC(=O)c1ccc(Cl)c(Cl)c1 | 112 to 115
57 | CN(C)CCCNc1ccc(NCCCN(C)C)c2c1C(=O)c1c(O)ccc(O)c1C2=O | 154 to 157
58 | CC(C)c1ncc2cc(Cl)nc(Cl)n12 | 90 to 93
59 | CCN(c1nc(C)cc(-c2ccccc2C(F)(F)F)n1)c1ccc(C(C)C)cc1Br | 101 to 102
60 | NS(=O)(=O)C1C=CC=CC1(CCNC(=O)C=Cc1cccs1)OCCOC(F)(F)F (stereo not given) | 203 to 205
61 | CCCCCCCc1ccc(C=Nc2ccc(C#N)cc2)cc1 | 32.7 to 33
62 | CC1(C)CC(=O)C(c2cccc(Cl)c2)C(=O)C1 | 155 to 158
63 | N#CN=C(Nc1cncc(N)c1)NC1(c2ccccc2)CCC1 | 213 to 214
64 | O=c1ccn(-c2ccc(F)cc2)nc1-c1ccnn1-c1ccccc1 | 252 to 253
65 | C=C(C)C(=O)OCc1c(Br)c(Br)c(Br)c(COC(=O)C(=C)C)c1Br | 97 to 99
66 | Cc1nn(C2CCCC2C)c(N)c1C(N)=O (stereo not given) | 124 to 126
67 | O=c1[nH][nH]c2c1c(O)nc1cc(Cl)ccc12 | > 350
68 | C#Cc1cc([C@@H](C)NC(=O)Nc2ccc(C(C)(C)C)cc2)ccc1NS(C)(=O)=O | 88.4 to 89.4
69 | COCCOC(=O)Nc1cccc(C)c1COc1cccn2c(C)c(C)nc12 | 107 to 108
70 | N#CC1(N2C(=O)C3=C(CCCC3)C2=O)CCCCC1 | 55.5 to 56.5
71 | COCCOCOc1c(C(C)(C)C)cc(C2=NC(=S)N=N2)cc1C(C)(C)C | 187
72 | CCc1ccc2c(c1)C=Cc1oc(C)nc1C2c1cn(-c2ccnc(NCC(=O)Nc3nc(CC(=O)O)cs3)n2)c(=O)[nH]c1=O (stereo not given) | 205 to 210
73 | CC1(C)Oc2cc(N)c([N+](=O)[O-])cc2[C@@H](N2CCCC2=O)[C@@H]1O (relative stereo) | 310 to 313
74 | CC(C)(C)NCC(O)c1cc(Cl)c(N)c([N+](=O)[O-])c1 (stereo not given) | 148 to 149
75 | COc1ccc(CN2Cc3cncn3C(c3ccc(C#N)cc3)C2=O)cc1 (stereo not given) | 155 to 157

Row | SMILES | melting point [°C]
76 | Cc1cccc(NC(=O)NCC(=O)N(CC(=O)N(C)c2ccccc2Cl)c2ccccc2)c1 | 175
77 | O=C(Nc1ccc2[nH]c(=O)oc2c1)C(=O)N1CCC(Cc2ccc(F)cc2F)CC1 | 191
78 | OC(CCN1CCN(c2ccccc2)CC1)c1ccccc1 (stereo not given) | 85 to 87
79 | N#Cc1cccc(-c2cc(-c3ccccc3C(=O)O)on2)c1 | 195 to 196
80 | O=C(O)c1nn(CCCCCCl)c2c1CCc1cc(Cl)sc1-2 | 205 to 208
81 | Cc1cc2cc(OCCCCBr)ccc2[nH]1 | 77 to 79
82 | CCc1c(N(C(C)=O)c2cc(C)cc(C)c2)[nH]c(=O)[nH]c1=O | 238 to 239
83 | O=C(O)c1cc2ccnc(Cl)c2[nH]1 | 210 to 214
84 | O=C(O)COc1cccc(COC(=O)N(c2ccccc2)c2ccccc2)c1Cl | 182 to 183
85 | O=C(Nc1ccccc1)N(c1ccccc1)c1ccccc1 | 131
86 | O=C(Oc1cc2ccccc2cc1OC(=O)c1cc(O)c(O)c(O)c1)c1cc(O)c(O)c(O)c1 | 182 to 183
87 | O=C(c1ccncc1)c1cc(-c2ccc(Cl)cc2)c(N2CCOCC2)s1 | 117
88 | CC(Cn1c2ccccc2c2ccccc21)OS(C)(=O)=O (stereo not given) | 125 to 127
89 | CC(C)(C)c1ccc(-c2nc(NC(=O)c3cccnc3)sc2-c2ccncc2)cc1 | 326 to 328
90 | O=C(NC(=S)Nc1ccc(F)cc1)c1ccccc1 | 82
91 | Cc1c(-c2ccncc2)sc(-c2ccncc2)c1C=O | 139 to 140
92 | CC(C)(C)c1cc(-c2nn(CC(=O)N3CCOCC3)c3ncccc23)cc(C(C)(C)C)c1O | 207 to 209
93 | CC(CC(O)=S)(c1ccc(OCc2ccc3ccccc3n2)cc1)c1ccc(OCc2ccc3ccccc3n2)cc1 | 92 to 94
94 | CCCOc1ccc(S(=O)(=O)Cl)cc1C(=O)O | 121 to 124
95 | CCOC(=O)C(Cc1c[nH]c2cc(Cl)cc(Cl)c12)=NO | 175 to 176
96 | CCC(CC)c1ccc(C#N)c2nc(Oc3ccc(Cl)cc3Br)n(C)c12 | 136 to 137
97 | O=C(O)c1cc(-c2ccncn2)c[nH]c1=O | > 250
98 | CCCC(CC(CC)SC)CC1OC(n2cnc3c(N)ncnc32)C(O)C1O (stereo not given) | 78 to 80
99 | CN(C)CCN(C(N)=O)c1cnccn1 | 105 to 108
100 | CS(=O)(=O)c1ccc(-c2cnn(-c3ccc(Oc4ccccc4)cc3)c(=O)c2-c2ccc(F)cc2)cc1 | 118 to 125
